Results: ChEMBL document CHEMBL1909564, “A modular approach to trim cellular targets in anticancer drug discovery” (Bioorg Med Chem Lett, 2011)
The source made the active and inactive calls. No cut-off for these calls is given here.

Experiments:
Ishikawa = experiment: Growth inhibition of human Ishikawa cells; assay type: functional
HBL-100 [1] = experiment: Growth inhibition of human HBL100 cells; assay type: functional
T47D [2] = experiment: Growth inhibition of human T47D cells; assay type: functional
HeLa [3] = experiment: Growth inhibition of human HeLa cells; assay type: functional
A2780 = experiment: Growth inhibition of human A2780 cells; assay type: functional
WiDr [4] = experiment: Growth inhibition of human WiDr cells; assay type: functional
SW1573 [5] = experiment: Growth inhibition of human SW1573 cells; assay type: functional
HBL-100 [6] = experiment: Induction of apoptosis in human HBL100 cells assessed as increase in sub-G1 DNA content at 7 to 21 uM after 24 hrs by flow cytometry; assay type: functional
T47D [7] = experiment: Cell cycle arrest in human T47D cells assessed as accumulation at G2/M phase after 24 hrs by flow cytometry; assay type: functional, cell-based
SW1573 [8] = experiment: Cell cycle arrest in human SW1573 cells assessed as decrease in cells at S phase at 7 to 21 uM after 24 hrs by flow cytometry; assay type: functional, cell-based
T47D [9] = experiment: Induction of apoptosis in human T47D cells assessed as increase in sub-G1 DNA content at 7 to 21 uM after 24 hrs by flow cytometry; assay type: functional
HeLa [10] = experiment: Cell cycle arrest in human HeLa cells assessed as accumulation at G2/M phase after 24 hrs by flow cytometry; assay type: functional, cell-based
T47D [11] = experiment: Cell cycle arrest in human T47D cells assessed as decrease in cells at G1 phase at 7 to 21 uM after 24 hrs by flow cytometry; assay type: functional, cell-based
HeLa [12] = experiment: Cell cycle arrest in human HeLa cells assessed as effect on cyclin B1 protein at 7 to 21 uM after 24 hrs by Western blot analysis; assay type: functional, cell-based
HBL-100 [13] = experiment: Cell cycle arrest in human HBL100 cells assessed as decrease in cells at G1 phase at 7 to 21 uM after 24 hrs by flow cytometry; assay type: functional, cell-based
HeLa [14] = experiment: Cell cycle arrest in human HeLa cells assessed as increase in phosphorylated BubR1 level at 7 to 21 uM after 24 hrs by Western blot analysis; assay type: functional, cell-based
HBL-100 [15] = experiment: Cell cycle arrest in human HBL100 cells assessed as accumulation at G2/M phase after 24 hrs by flow cytometry; assay type: functional, cell-based
SW1573 [16] = experiment: Cell cycle arrest in human SW1573 cells assessed as accumulation at G2/M phase after 24 hrs by flow cytometry; assay type: functional, cell-based
HeLa [17] = experiment: Induction of apoptosis in human HeLa cells assessed as PARP cleavage at 7 to 21 uM after 24 hrs by immunoblotting; assay type: functional, cell-based
HBL-100 [18] = experiment: Cell cycle arrest in human HBL100 cells assessed as decrease in cells at S phase at 7 to 21 uM after 24 hrs by flow cytometry; assay type: functional, cell-based
WiDr [19] = experiment: Induction of apoptosis in human WiDr cells assessed as increase in sub-G1 DNA content at 7 to 21 uM after 24 hrs by flow cytometry; assay type: functional
HeLa [20] = experiment: Cell cycle arrest in human HeLa cells assessed as decrease in cells at G1 phase at 7 to 21 uM after 24 hrs by flow cytometry; assay type: functional, cell-based
SW1573 [21] = experiment: Induction of apoptosis in human SW1573 cells assessed as increase in sub-G1 DNA content at 7 to 21 uM after 24 hrs by flow cytometry; assay type: functional
WiDr [22] = experiment: Cell cycle arrest in human WiDr cells assessed as decrease in cells at G1 phase at 7 to 21 uM after 24 hrs by flow cytometry; assay type: functional, cell-based
WiDr [23] = experiment: Cell cycle arrest in human WiDr cells assessed as accumulation at G2/M phase after 24 hrs by flow cytometry; assay type: functional, cell-based
T47D [24] = experiment: Cell cycle arrest in human T47D cells assessed as decrease in cells at S phase at 7 to 21 uM after 24 hrs by flow cytometry; assay type: functional, cell-based
SW1573 [25] = experiment: Cell cycle arrest in human SW1573 cells assessed as decrease in cells at G1 phase at 7 to 21 uM after 24 hrs by flow cytometry; assay type: functional, cell-based
HeLa [26] = experiment: Cell cycle arrest in human HeLa cells assessed as increase in level of phosphorylated histone H3 at ser10 at 7 to 21 uM after 24 hrs by Western blot analysis; assay type: functional, cell-based
WiDr [27] = experiment: Cell cycle arrest in human WiDr cells assessed as decrease in cells at S phase at 7 to 21 uM after 24 hrs by flow cytometry; assay type: functional, cell-based
HeLa [28] = experiment: Cell cycle arrest in human HeLa cells assessed as decrease in phosphorylated RB protein at 7 to 21 uM after 24 hrs by Western blot analysis; assay type: functional, cell-based
HeLa [29] = experiment: Cell cycle arrest in human HeLa cells assessed as decrease in cells at S phase at 7 to 21 uM after 24 hrs by flow cytometry; assay type: functional, cell-based
HeLa [30] = experiment: Cell cycle arrest in human HeLa cells assessed as phosphorylated histone H3 at ser10 at 21 uM after 24 hrs by flow cytometry (reference value: […]); assay type: functional
HeLa [31] = experiment: Induction of apoptosis in human HeLa cells assessed as increase in sub-G1 DNA content at 7 to 21 uM after 24 hrs by flow cytometry; assay type: functional

`CSc1nc(N)c(N=O)c(NCCc2ccccc2)n1` was tested, and the GI50 (Ishikawa) was > 100 µM, the GI50 (HBL-100 [1]) was 12 µM and the GI50 (T47D [2]) was > 100 µM. The GI50 (HeLa [3]) was 27 µM, the GI50 (A2780) was > 100 µM and the GI50 (WiDr [4]) was > 100 µM. For the same compound, the GI50 (SW1573 [5]) was 37 µM.

With `CNc1ncnc(NCCc2ccccc2)c1N=O` the Activity (HBL-100 [6]) was <8.5%, the GI50 (Ishikawa) was 3.8 µM and the Activity (T47D [7]) was “Dose-dependent effect”. The Activity (SW1573 [8]) was “Active”, the Activity (T47D [9]) was <8.5% and the Activity (HeLa [10]) was “Dose-dependent effect”. For the same compound, the Activity (T47D [11]) was “Active”, the Activity (HeLa [12]) was “inactive” and the Activity (HBL-100 [13]) was “Active”. The Activity (HeLa [14]) was “Active”, the Activity (HBL-100 [15]) was “Dose-dependent effect” and the Activity (SW1573 [16]) was “Dose-dependent effect”. The Activity (HeLa [17]) was “inactive”, the Activity (HBL-100 [18]) was “Active” and the Activity (WiDr [19]) was <8.5%. For the same compound, the Activity (HeLa [20]) was “Active”, the GI50 (HBL-100 [1]) was 3.6 µM and the Activity (SW1573 [21]) was <8.5%. The Activity (WiDr [22]) was “Active”, the Activity (WiDr [23]) was “Dose-dependent effect” and the GI50 (T47D [2]) was 7 µM. For the same compound, the Activity (T47D [24]) was “Active”, the Activity (SW1573 [25]) was “Active” and the GI50 (HeLa [3]) was 4.5 µM. For the same compound, the GI50 (A2780) was 3.4 µM, the GI50 (WiDr [4]) was 7.2 µM and the Activity (HeLa [26]) was “Active”. The GI50 (SW1573 [5]) was 3.2 µM, the Activity (WiDr [27]) was “Active” and the Activity (HeLa [28]) was “Active”. The Activity (HeLa [29]) was “Active”, the Activity (HeLa [30]) was 15.1% and the Activity (HeLa [31]) was <8.5%.

`COc1cc([C@@H]2c3cc4c(cc3[C@@H](O[C@@H]3O[C@@H]5CO[C@@H](C)O[C@H]5[C@H](O)[C@H]3O)[C@H]3COC(=O)[C@H]23)OCO4)cc(OC)c1O` [ETOPOSIDE] was tested, and the GI50 (Ishikawa) was 11 µM, the GI50 (HBL-100 [1]) was 2.3 µM and the GI50 (T47D [2]) was 22 µM. For the same compound, the GI50 (HeLa [3]) was 3 µM, the GI50 (WiDr [4]) was 23 µM and the GI50 (SW1573 [5]) was 15 µM.

For `Cn1c(=O)c(=O)n(O)c2c(NCCc3ccccc3)ncnc21`, the GI50 (Ishikawa) was > 100 µM, the GI50 (HBL-100 [1]) was 54 µM and the GI50 (T47D [2]) was > 100 µM. The GI50 (HeLa [3]) was > 100 µM, the GI50 (A2780) was > 100 µM and the GI50 (WiDr [4]) was > 100 µM. The GI50 (SW1573 [5]) was 59 µM.

Work on `CC(=O)O[C@H]1C(=O)[C@@]2(C)[C@H]([C@H](OC(=O)c3ccccc3)[C@]3(O)C[C@H](OC(=O)[C@H](O)[C@@H](NC(=O)c4ccccc4)c4ccccc4)C(C)=C1C3(C)C)[C@]1(OC(C)=O)CO[C@@H]1C[C@@H]2O` [PACLITAXEL] yielded a GI50 (HBL-100 [1]) of 1.7e-05 µM, a GI50 (T47D [2]) of 0.00015 µM and a GI50 (A2780) of 0.00027 µM. For the same compound, the GI50 (WiDr [4]) was 0.00022 µM and the GI50 (SW1573 [5]) was 0.005 µM.

In the case of `Cn1c(=O)c(=O)n(O)c2c(NCCN3CCOCC3)ncnc21`, the GI50 (Ishikawa) is reported as > 100 µM, the GI50 (HBL-100 [1]) is reported as > 100 µM and the GI50 (T47D [2]) is reported as > 100 µM. For the same compound, the GI50 (HeLa [3]) was > 100 µM, the GI50 (A2780) was > 100 µM and the GI50 (WiDr [4]) was > 100 µM. For the same compound, the GI50 (SW1573 [5]) was > 100 µM.
